Measured values taken from ChEMBL document CHEMBL6092140, “Structure-activity relationship study of small-molecule inhibitor of Atg12-Atg3 protein-protein interaction” (Bioorg Med Chem Lett, 2024).
Activity calls are given as the source filed them. The rule behind the calls is not given here.

What was measured:
[1] = molecular target: Casein kinase II subunit alpha' (Homo sapiens) (UniProt P19784); assay: Inhibition of […] (unknown origin) assessed as residual activity relative to control; set-up: concentration or dose not given beside the values
[2] = Inhibition of wild type ATG12-ATG3 protein protein interaction (unknown origin) expressed in HEK293T cells preincubated for ATG12 for 1 hr followed by ATG3 addition by luminescence based microplate analysis; format: cell-based, Homo sapiens

Sequence of Casein kinase II subunit alpha' (Homo sapiens) (P19784 whole entry, looked up): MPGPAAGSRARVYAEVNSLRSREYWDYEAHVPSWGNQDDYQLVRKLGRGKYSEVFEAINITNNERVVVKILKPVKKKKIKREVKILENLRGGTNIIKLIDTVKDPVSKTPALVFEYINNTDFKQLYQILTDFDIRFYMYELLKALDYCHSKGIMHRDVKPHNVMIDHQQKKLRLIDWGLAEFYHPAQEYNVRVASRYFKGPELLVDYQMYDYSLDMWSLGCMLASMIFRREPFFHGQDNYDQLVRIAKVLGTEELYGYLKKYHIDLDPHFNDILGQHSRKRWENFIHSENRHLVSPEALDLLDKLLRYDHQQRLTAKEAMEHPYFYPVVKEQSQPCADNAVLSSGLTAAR

Activity [1] | IC50 [2] [µM] | SMILES
50% | 91 | COc1nc(Nc2cccc(Cl)c2)nc2cc(C(=O)O)ccc12
55% | 62 | Cn1cnc2c3ccc(C(=O)O)cc3nc(Nc3cccc(Cl)c3)c21
1% | 16 | O=C(O)c1ccc2c(c1)nc(Nc1cccc(Cl)c1)c1ncsc12
128% | 60 | O=C(O)c1ccc2c(c1)N=C(Nc1cccc(Cl)c1)N1CCN=C21
-1% | 11 | Cc1nsc2c1c(Nc1cccc(Cl)c1)nc1cc(C(=O)O)ccc12
-4% | 62 | O=C(O)c1ccc2cnc(Nc3cccc(Cl)c3)nc2c1
20% | 50 | O=C(O)c1ccc2ccc(Nc3cccc(Cl)c3)nc2c1
13% | 6 | O=C(O)c1ccc2c(c1)nc(Nc1cccc(Cl)c1)c1cccnc12
33% | 14 | Cc1scc2c1c(Nc1cccc(Cl)c1)nc1cc(C(=O)O)ccc12
28% | 10 | O=C(O)c1ccc2c(c1)nc(Nc1cccc(Cl)c1)c1cnccc12
26% | 8 | Cc1cn2c(Nc3cccc(Cl)c3)nc3cc(C(=O)O)ccc3c2n1
1% | 19 | Cn1ncc2c3ccc(C(=O)O)cc3nc(Nc3cccc(Cl)c3)c21
20% | 24 | CCc1cn2c(Nc3cccc(Cl)c3)nc3cc(C(=O)O)ccc3c2n1
31% | 14 | O=C(O)c1ccc2c(c1)nc(Nc1cccc(Cl)c1)n1ccnc21
-1% | 14 | O=C(O)c1ccc2c(c1)nc(Nc1cccc(Cl)c1)c1ccsc12
87% | > 99 | O=C(O)c1ccc2c(c1)N=C(Nc1cccc(Cl)c1)N1CCCN=C21
35% | 42 | Cn1ncc2c(Nc3cccc(Cl)c3)nc3cc(C(=O)O)ccc3c21
109% | > 99 | CC1=CN2C(Nc3cccc(Cl)c3)=Nc3cc(C(N)=O)ccc3C2N1 (centres undefined)
29% | 24 | Cc1cnc2c3ccc(C(=O)O)cc3nc(Nc3cccc(Cl)c3)n12

Continued, molecule first:

SMILES | Activity [1] | IC50 [2] [µM]
Cc1cn2c(Nc3cccc(C#N)c3)nc3cc(C(=O)O)ccc3c2n1 | 38% | 8
CC1=CN2C(Nc3cccc(Cl)c3)=Nc3cc(-c4nnn[nH]4)ccc3C2N1 (centres undefined) | 80% | 73
O=C(O)c1ccc2c(Cc3ccccc3)nc(Nc3cccc(Cl)c3)nc2c1 | 96% | > 99
O=C(O)c1ccc2c(c1)nc(Nc1cccc(Cl)c1)c1ccncc12 [SILMITASERTIB] | 2% | 27
CC1=CN2C(Nc3cccc(Cl)c3)=Nc3cc(-c4noc(=O)[nH]4)ccc3C2N1 (centres undefined) | 105% | 92
O=C(O)c1ccc2c(Cc3ccccc3)cc(Nc3cccc(Cl)c3)nc2c1 | 101% | > 99
Cc1cn2c(Nc3ccnc(Cl)c3)nc3cc(C(=O)O)ccc3c2n1 | 73% | 71
Clc1cccc(Nc2nc3cc(-c4nnn[nH]4)ccc3c3ncccc23)c1 | 53% | 64
Cc1cn2c(Nc3cccc(C(C)(C)C)c3)nc3cc(C(=O)O)ccc3c2n1 | 102% | 24
Cc1cn2c(NC(C)(C)C)nc3cc(C(=O)O)ccc3c2n1 | 104% | > 99
N/C(=N\O)c1ccc2c(c1)nc(Nc1cccc(Cl)c1)c1cccnc12 | inactive | > 99
Cc1cn2c(Nc3cccc(OC(F)(F)F)c3)nc3cc(C(=O)O)ccc3c2n1 | 42% | 37
O=C(O)c1ccc2c(c1)nc(Oc1cccc(Cl)c1)c1ccncc12 | 4% | 51
Cc1cn2c(Nc3cccc(C(C)C)c3)nc3cc(C(=O)O)ccc3c2n1 | 31% | 41
Cc1cn2c(Nc3cccc(I)c3)nc3cc(C(=O)O)ccc3c2n1 | 11% | 10
O=C(O)c1ccc2c(c1)nc(Nc1cccc(Cl)c1)n1cc(Cc3ccccc3)nc21 | 81% | 14
O=C(O)c1ccc2c(c1)nc(Nc1cccc(Cl)c1)c1ccccc12 | 36% | 45
Cc1cn2c(NC34CC5CC(CC(C5)C3)C4)nc3cc(C(=O)O)ccc3c2n1 | 83% | 25
Cc1cn2c(Nc3cccc(Cl)c3)nc3cc(P(=O)(O)O)ccc3c2n1 | 95% | > 99
Cc1cn2c(Nc3cccc(C(F)(F)F)c3)nc3cc(C(=O)O)ccc3c2n1 | 48% | 30
Cc1cn2c(N(C)c3cccc(Cl)c3)nc3cc(C(=O)O)ccc3c2n1 | 75% | > 99
Cc1cn2c(Nc3ccc(Cl)cc3)nc3cc(C(=O)O)ccc3c2n1 | 76% | > 99
Cc1cn2c(Nc3cccc(F)c3)nc3cc(C(=O)O)ccc3c2n1 | 35% | 90
O=c1[nH]nc(-c2ccc3c(c2)nc(Nc2cccc(Cl)c2)c2cccnc23)o1 | 52% | 72
Cc1cn2c(NC3CCCCC3)nc3cc(C(=O)O)ccc3c2n1 | 72% | > 99
O=C(O)c1ccc2c(c1)nc(Nc1cccc(Cl)c1)n1cc(-c3ccccc3)nc21 | 114% | 9
CC(=O)Oc1ccc(COC(=O)c2ccc3c(c2)nc(Nc2cccc(Cl)c2)c2cccnc23)cc1 | inactive | 53
CC(C)c1cn2c(Nc3cccc(Cl)c3)nc3cc(C(=O)O)ccc3c2n1 | 105% | 30
